These results are taken from patent US9005917B2, “Variable color two-photon fluorescent probe, method for imaging thiol activation in mitochondrion using same, and method for manufacturing the variable color two-photon fluorescent probe” (Ajou University Industry-Academic Cooperation Foundation, priority 2011, dated 2015).

Data set [1] is described as follows: Thiol selectivity and pH dependence of fluorescence response in MOPS buffer. As to the method: White and black bars represent the relative fluorescence intensity (Fyellow/Fblue) of SSH-Mito (5 μM) in the presence of various analytes before and after addition of GSH, respectively. Each spectrum was acquired 2 hours after addition of various analytes at 37° C.
The excitation wavelength was 380 nm.
White and black bars represent the relative fluorescence intensity before and after addition of GSH, respectively.

For the next data set, the system named is thiols in HeLa cells. Briefly: Ratiometric two-photon microscopy imaging of thiols in HeLa cells. It counts as cell-based. As to the method:
The images were acquired using 740 nm excitation and fluorescence emission windows of 425-475 nm (blue) and 525-575 nm (yellow). Scale bar: 20 μm. The cells shown are representative images obtained from repeated experiments (n=5).
It was tested if the two-photon fluorescent probe of the present invention can monitor the change of thiols in a living cell.
When the cells were pre-incubated for 1 day with α-lipolic acid which increases GSH production (FIG. 6 (b)), the Fyellow/Fblue ratio increased to 2.64. And, when treated with N-ethylmaleimide (NEM), a well-known thiol blocking agent, the Fyellow/Fblue ratio decreased to 0.77 (FIG. 6 (c)).

Data set [2] in a line: Emission ratio change (Rmax/Rmin) before and after addition of GSH. Conditions: before and 2 hours after addition of 10 mM GSH. As to the method:
(§1) Photophysical properties of the two-photon fluorescent probe (SSH-Mito) (Example 1) and the compound represented by Formula 6 were measured in MOPS buffer (30 mM MOPS, 100 mM KCl, pH 7.4).

The test system of the next data set is HeLa cells. Description: Cytotoxicity, viability by CCK-8 kit. It counts as cell-based. Conditions: incubated 2 hours. Here is the method:
The cells were incubated with SSH-Mito for 2 hours.
In general terms: Tetrazolium dyes change colour on reduction, which living cells bring about.

In data set [3] the test system is thiols in rat hippocampal slices. Briefly: Ratiometric two-photon microscopy imaging of rat hippocampal slices. As to the method:
(a, d) Bright-field images of the CA1 and CA3 regions. (b, e) Ratiometric TPM images of rat hippocampal slices that were (b) not treated and (e) pretreated with NEM (100 μM) for 30 minutes before labeling with SSH-Mito. Ten TPM images were accumulated along the z-axis direction at depths of about 90-190 μm (10×). (c, f) Enlarged (40×) images of the red boxes in (b) and (e) at a depth of 120 μm. The two-photon excited fluorescence (TPEF) was collected in two channels (blue=425-475 nm, yellow=525-575 nm) upon excitation at 740 nm with a femtosecond (fs) pulse. Scale bars: 300 μm (a, d) and 75 μm (c, f)).
In order to investigate the utility of two-photon fluorescent probe of the present invention in tissue imaging, rat hippocampal slices were monitored.
Since the structure of the brain tissue is known to be inhomogeneous throughout its entire depth, 10 TPM images were obtained at depths of 90-190 μm and they were combined to visualize the overall thiol distribution. […] When the tissue was treated with 100 μM NEM for 30 minutes, the ratio decreased to 0.85 (FIG. 8 (f)).

Data set [4] can be described thus: Measurement of water solubility by fluorescence intensity versus concentration. Conditions: 30 mM MOPS, 100 mM KCl, pH 7.4; 0.2% DMSO. The format is physicochemical. Here is the method: A small amount of the two-photon fluorescent probe (SSH-Mito) prepared in Example 1 was dissolved in DMSO to prepare a stock solution (1.0×10^−2 M). The solution was diluted to 6.0×10^−3 to 6.0×10^−5 M and added to a cuvette containing 3.0 mL of a buffer (30 mM MOPS, 100 mM KCl, pH 7.4) using a microsyringe. In all cases, the concentration of DMSO in water was maintained at 0.2%. […] The maximum concentration in the linear region is determined as the solubility of the two-photon fluorescent probe.

The nature of data set [5]: Measurement of photophysical properties in MOPS buffer. The format is physicochemical. The following applies: for λ(1)max, λmax of one-photon absorption spectra: MOPS buffer (30 mM MOPS, 100 mM KCl, pH 7.4); for Φδ, two-photon action cross section / λ(2)max, λmax of two-photon excitation spectra / λfl max, λmax of one-photon emission spectra / 10^−4 ε, molar extinction coefficient (in parentheses) / Φ, fluorescence quantum yield / δ, peak two-photon cross section per photon: MOPS buffer pH 7.4; for 10^−4 ε, molar extinction coefficient (in parentheses): printed as 10^−4 ε; for Φ, fluorescence quantum yield / δ, peak two-photon cross section per photon: ±15%. As to the method:
as §1

As for `CN(C(=O)OCCSSCCN)c1ccc2cc(-c3nc4ccc(C(=O)NCC[P+](c5ccccc5)(c5ccccc5)c5ccccc5)cc4s3)ccc2c1` [SSH-Mito], the “selectivity for GSH over other analytes” value in data set [1] (5 μM probe, 10 mM analytes, 30 mM MOPS buffer pH 7.4) is given as “high selectivity for GSH”. For the same molecule, the “fluorescence response toward compounds containing thiol groups” value in data set [1] (GSH, Cys, Hcy, DTT, 2-ME, 2-AET) is “strong responses”. Besides, the “effect of pH on fluorescence” value in data set [1] (absence and presence of 10 mM GSH, MOPS buffer) is “pH-insensitive at biologically relevant pH”. Moreover, in data set [1] (amino acids (Glu, Ser, Val, Met, Ala, Ile), metal ions (Na+, K+, Ca+, Mg2+, Zn2+) and H2O2), the “fluorescence response toward analytes without thiol groups” value is “negligible responses”. Besides, the Fyellow/Fblue ratio in the data set with thiols in HeLa cells (HeLa cells pre-incubated for 1 day with α-lipolic acid) is given as 2.64. Also, the Fyellow/Fblue ratio in the data set with thiols in HeLa cells (HeLa cells treated with N-ethylmaleimide (NEM)) came to 0.77. Further, the “average emission ratio (Fyellow/Fblue)” value in the data set with thiols in HeLa cells (HeLa cells, TP excitation at 740 nm, no pretreatment) was 1.24. In data set [2] (one-photon), the “Rmax/Rmin, emission ratio (F525-575/F425-475) conversion factor, one-photon processes” value amounted to 45. Further, the “Rmax/Rmin, emission ratio conversion factor, two-photon processes (in parentheses)” value in data set [2] (two-photon) was determined as 40. Moreover, the “viability of HeLa cells (cytotoxicity)” value in the data set with HeLa cells was “adequate for detecting thiols in living cells”. In addition, the average emission ratio in data set [3] (CA1 region, depth of 120 μm, not treated) came out at 1.66. Moreover, the average emission ratio in data set [3] (tissue treated with 100 μM NEM for 30 minutes) came out at 0.85. Further, the “solubility in the buffer” value in data set [4] is approximately 5.0 µM. Further, in data set [5], the “λ(1)max, λmax of one-photon absorption spectra” value is recorded as 338 nm; the “Φδ, two-photon action cross section” value turned out to be 80; the “λ(2)max, λmax of two-photon excitation spectra” value worked out at 740 nm; the “λfl max, λmax of one-photon emission spectra” value is 462 nm. In addition, in data set [5], the “10^−4 ε, molar extinction coefficient (in parentheses)” value was 2.05 M^−1 cm^−1; the “Φ, fluorescence quantum yield” value was found to be 0.82; the δ, peak two-photon cross section per photon was 95 GM.

Regarding `CNc1ccc2cc(-c3nc4ccc(C(=O)NCC[P+](c5ccccc5)(c5ccccc5)c5ccccc5)cc4s3)ccc2c1.[Br-]` [Compound No. 6], in data set [5], the “λ(1)max, λmax of one-photon absorption spectra” value worked out at 383 nm; the “Φδ, two-photon action cross section” value is reported as 55; the “λ(2)max, λmax of two-photon excitation spectra” value came out at 750 nm; the “λfl max, λmax of one-photon emission spectra” value is listed as 545 nm. In data set [5], the “10^−4 ε, molar extinction coefficient (in parentheses)” value turned out to be 1.50 M^−1 cm^−1; the “Φ, fluorescence quantum yield” value is 0.12; the δ, peak two-photon cross section per photon came to 550 GM.
